Reference: ChEMBL document CHEMBL1157539, “Thousands of chemical starting points for antimalarial lead identification” (Nature, 2010)
Structures can show the parent of a compound that is named as a salt.

system: Plasmodium falciparum; test: GSK_TCMDC: Inhibition of Plasmodium falciparum 3D7 in whole erythrocytes, using parasite LDH activity as an index of growth.; format: functional, organism-based; settings: not given

Compound	XC50 [nM]
Cn1nc(-c2ccc(S(=O)(=O)NC3CCC(CN4CCC(c5c[nH]c6ccccc56)CC4)CC3)s2)cc1C(F)(F)F (centres undefined)	835
O[C@@H](c1cc(C(F)(F)F)nc2c(C(F)(F)F)cccc12)[C@H]1CCCCN1	69.2

same assay, conditions: Plasmodium falciparum, 3D7

Compound	XC50 [nM]
COc1ccc2nccc([C@@H](O)CN3CCC(NC(=O)Cn4nc(-c5ccc(C(F)(F)F)cc5)ccc4=O)CC3)c2c1	737
O=c1cc(NCCCNCc2cccc(OC(F)(F)F)c2)[nH]c2ccccc12	854
CCCCCC(C)C(C)c1cc(O)c2c(c1)OC(C)(C)CC2(O)c1ccccn1 (centres undefined)	741
O=C(Nc1cccc(CN2CCCN(Cc3ccc(O)cc3)CC2)c1)c1ccc(Cl)c(Cl)c1	259
Cn1nc(-c2ccc(NC(=O)Nc3cc(C(F)(F)F)ccc3F)c(F)c2)c2cnc(NCCCN3CCOCC3)nc21	604
O=c1[nH]c2c(cc1CNC1CCCCC1)c(-c1ccc(F)cc1)nn2-c1ccccc1	804
CCCCCc1cnc2nc(N)nc(N)c2c1	1230
CCC(Nc1noc(-c2c(-c3ccccc3)noc2C)n1)c1ccccc1 (centres undefined)	973
CN1CCC(NCc2cccc(-c3cnc(NCc4ccccc4)nc3)c2)CC1	965
CCCCOC(=O)C1=C(C)NC2=C(C(=O)CCC2)C1c1ccc(OC)c(Br)c1 (centres undefined)	603
COc1ccccc1CCNc1nc(C)cc(N[C@@H](Cc2ccccc2)C(=O)NCCCOC(C)C)n1	865
COc1ccc2[nH]c(C(=O)Nc3cccc(-c4ccc(CN(C)C)cc4)c3)cc2c1	908
O=C(Nc1ccc2ccccc2c1)N1CCC(NCc2cccc([N+](=O)[O-])c2)CC1	855
Cn1nc(-c2ccc(S(=O)(=O)NC3CCC(CN4CCC(c5c[nH]c6ccccc56)CC4)CC3)s2)cc1C(F)(F)F (centres undefined)	820
CN(C)CCNC(=O)N1CCCN(c2ncnc3cc(-c4ccccc4)sc23)CC1	786
Nc1ncc(-c2cc3ccccc3o2)c(N)n1	1410
Cc1cccc(NC(=O)c2ccc(C(=O)NC3CCN(CC4CCCCC4)C3)cc2)c1 (centres undefined)	923
Cc1ccc(N2C(=O)C3C(C2=O)C2(c4ccccc4)C(=O)C3(c3ccccc3)C(c3ccccc3)=C2c2ccccc2)c(C)c1 (centres undefined)	529
CCc1c(C)nc(-n2nc(C)cc2NC(=O)c2cccc3ccccc23)[nH]c1=O	682
CCOC(=O)c1cn(CC)c2cc(F)c(OC3CC4CCC3(C)C4(C)C)cc2c1=O (centres undefined)	928
CN1CCN(c2ccnc3ccc(NC(=O)Nc4cccc5c(Br)cccc45)cc23)CC1	153
CC1=C(C(=O)Nc2ccc(Cl)cc2)C(c2ccncc2)n2nc(C(F)(F)F)nc2N1 (centres undefined)	935
Cc1cccc2nc(-c3ccc(-c4cccc(NC(=O)c5cncn5C)c4)cc3)[nH]c12	861
COC(=O)c1ccc(N2CCN(CCCCNC(=O)c3ccc(NC(=O)c4ccc(Cl)cc4)cc3)CC2)c(OC)c1	1300
COc1ccc(-c2cc(C(=O)N3CCc4ccccc43)c3ccccc3n2)cc1OC	327

Compound	XC50 [nM]
c1ccc(C23NC(=Nc4nc5ccccc5[nH]4)NC2(c2ccccc2)NC(=Nc2nc4ccccc4[nH]2)N3)cc1 (centres undefined)	276
CN(C)c1ccc(-c2csc(C(=O)NCC3CCN(Cc4cccc(C(F)(F)F)c4)C3)c2)cc1 (centres undefined)	843
O=C(/C=C/c1ccc(Cl)c(Cl)c1)NCCCCCN1CCC(NC(=O)c2ccc(F)c(F)c2)CC1	788
CC(Cc1ccc(CNC(=O)c2ccc(CC(C)NCCc3cccc(Cl)c3)cc2)cc1)NCCc1cccc(Cl)c1 (centres undefined)	696
CCCCCCn1c(Sc2ccc(C#N)c([N+](=O)[O-])c2)nnc1-c1ccccc1	772
N=C1N=C(N)NC2(CCCCC2)N1OCC1CCCCC1	155
O=C(/C=C/c1ccc(-c2nc3cc(F)c(F)cc3[nH]2)cc1)NCc1ccc(Cl)c(Cl)c1	938
Cc1cc(=NN=Cc2cccc(Cl)c2)c2ccc(F)cc2[nH]1	240
CC1=C(C(=O)Nc2ccccc2)C(c2ccc([N+](=O)[O-])cc2)n2ncc(C(=O)Nc3ccccc3)c2N1 (centres undefined)	1240
Cc1[nH]c(C)c(-c2ccc(Oc3cccc(Cl)c3)cc2)c(=O)c1Cl	20.8
CN1C(C)(C)CC(NC(=O)c2ccc(-c3nc4cc(Cl)c(Cl)cc4[nH]3)cc2)CC1(C)C	730
Cc1cc(C2CCN(CCCCNC(=O)c3ccc(-c4ccc(C#N)cc4)cc3)CC2)c(C)cc1O	854
CCCCCCNC(=O)C1Cc2c([nH]c3cc(Cl)ccc23)C2(CCN(Cc3ccccc3)CC2)N1 (centres undefined)	903
O=C1COc2ccc(S(=O)(=O)N3CCC[C@@H]3CCN3CCC(c4c[nH]c5cnccc45)CC3)cc2N1	865
O=C(Nc1cccnc1)c1ccc(-c2cc3ccncc3cc2OC2CCNCC2)s1	884
Cc1cccc2nc(-c3ccc(-c4cccc(NC(=O)Cc5c[nH]cn5)c4)cc3)[nH]c12	903
O=C(NCC1CCN(C/C=C/c2ccccc2)CC1)Nc1ccc(Oc2ccccc2)cc1	1040
Cc1cc(C(=O)NCc2ccc(-c3c(C)noc3C)cc2)n(-c2ccccc2)n1	825
CCCCNCc1ccc(-c2nc(CN(Cc3ccc(Cl)c(Cl)c3)C(=O)CN(C)C)cs2)cc1	805
Fc1ccc(CN2CCN(c3ncnc4cc(-c5ccccc5)sc34)CC2)cc1	1020
CCOc1ccc2[nH]c(C)cc(=NN=Cc3ccccc3)c2c1	785
NC1CCCN(Cc2cccc(-c3cccc(-c4nc5ccccc5[nH]4)c3)c2)C1 (centres undefined)	637
O=C(N[C@@H](Cc1ccccc1)[C@H](O)CNC1CCc2ccccc2C1)c1cc(C2CCCC2)cc(N2CCCC2=O)c1 (some centres undefined)	161
COc1ccc(CCNc2ccnc3cc(Cl)ccc23)cc1OC	891
CC(C)CNCc1ccc(-c2cccc(CN(CCN(C)C)C(=O)CCC3CCCC3)c2)cc1	809

Compound	XC50 [nM]
CC1(C)NC(=N)NC(=N)N1OCC=Cc1ccccc1	4.24
Fc1ccccc1-c1cc(Nc2ccncc2)nc(-c2cccnc2)n1	258
COc1ccc2nccc([C@@H](O)CN3CCC(NCc4cc5c(Cl)cc(Cl)cc5[nH]4)CC3)c2c1	58.5
Cc1nc2nc(N)nc(N)c2c(C)c1Cc1ccccc1Cl	112
O=C(Cn1c(CCc2cccc(F)c2F)cc(=O)c2ccccc21)N(CCN1CCCC1)Cc1ccc(-c2ccc(C(F)(F)F)cc2)cc1	859
O=C(NCc1ccccc1)Nc1ccc(-c2cccc(-c3nc4cc(C(F)(F)F)ccc4[nH]3)c2)cc1	662
CN(C)CCCn1cc(C(=O)OC2CC3CCC(C2)N3C)c2cc(-c3ccccc3)ccc21 (centres undefined)	837
Cc1cccc(-c2nc3cc(NC(=O)c4ccc([N+](=O)[O-])o4)ccc3o2)c1	876
COc1ccc(CC(=O)Nc2ccc(Nc3nc(C)cc(N4CCCC4)n3)cc2)cc1	1110
O=C(NC1CCC(CN2CCC(c3c[nH]c4ccccc34)CC2)CC1)c1cn(Cc2ccccc2)c2ccccc12 (centres undefined)	1130
CCCCCNC(=N)c1ccc(OCCCCCOc2ccc(C(=N)NCCCCC)cc2)cc1	247
Cc1cc(NC(=O)NCCN2CCC(NS(=O)(=O)c3ccccc3Cl)C2)c2ccccc2n1 (centres undefined)	815
Cc1cccc(-c2cccc3c(NC(=O)N4CCc5cc6nccc(N7CCN8CCC[C@H]8C7)c6cc54)cccc23)n1	916
O=C(CSc1cccc[n+]1[O-])c1ccc(Cc2ncc(C(F)(F)F)cc2Cl)s1	715
Cc1cc(=NN=Cc2ccc(Cl)cc2)c2ccccc2[nH]1	787
CCN1CCN(CCCNc2c3ccc(Cl)cc3nc3ccc(O)cc23)CC1	566
Nc1nccc2ccc(-c3ccc4ncccc4c3)cc12	112
CCNc1cc(C(=O)N[C@@H](Cc2ccccc2)[C@H](O)CN[C@@H](C)c2ccccc2)cc(N2CCCC2=O)c1	666
CN1CCN(c2ccnc3ccc(NC(=O)Nc4cccc(C#N)c4)cc23)CC1	799
CC(C)(CN)c1nc(-c2ccc(Br)c(O)c2)c(-c2ccncc2)[nH]1	965
c1ccc(CC2=NCCN2)cc1 [TOLAZOLINE HYDROCHLORIDE]	188
COc1cccc(OC)c1-c1ccccc1NC(=O)N1CCCc2cc(C)ccc21	823
O[C@@H](c1cc(C(F)(F)F)nc2c(C(F)(F)F)cccc12)[C@H]1CCCCN1	73.7
Cc1nc2ccccc2n1C1CC2CCC(C1)N2CCCC1(c2ccccc2)CCN(C(=O)OCc2ccccc2)CC1 (centres undefined)	998
Nc1cccc(CNCc2ccc(-c3cccc(-c4nc5cc(F)ccc5[nH]4)c3)cc2)c1	213

Compound	XC50 [nM]
CC(C)Cc1cnc2nc(N)nc(N)c2c1	491
Cc1ccc(O)cc1Nc1ccnc2cc(-c3csc(CNCCN4CCOCC4)n3)ccc12	884
CCCCNc1c(CC)c(C)c(C#N)c2nc3ccccc3n12	385
O=C(Nc1ccc(F)cc1)NC1CCN(c2ccnc3ccccc23)C1 (centres undefined)	873
CCC1(c2ccccc2)N=C(N)N(CCCc2ccccc2)C1=O (centres undefined)	891
CC(C)c1ccc(NC(=O)c2ccc(C(=O)NC3CCN(Cc4ccccc4)CC3)cc2)cc1	982
CC(C)(CNC(=O)C1CCN(Cc2ccoc2)CC1)c1nc(-c2ccc(Cl)c(O)c2)c(-c2ccncc2)[nH]1	866
CC(C)Oc1ccc(C=CC(=O)Nc2noc3ccccc23)cc1	288
FC(F)(F)c1ccc2nccc(NCc3ccccc3)c2c1	1150
COc1ccc2[nH]cc(C3CCN(CCC4CCN(C(=O)/C=C/c5ccc(Cl)c(Cl)c5)CC4)CC3)c2c1	862
Nc1c2c(nc3ccc(C(=O)Nc4ccc(Br)cc4)cc13)CCCC2	149
COc1ccc2nccc([C@@H](O)CN3CCC(NCc4[nH]c5ccccc5c4F)CC3)c2c1	247
N=c1n(CCN2CCCC2)c2ccccc2n1CC(O)c1ccc(Cl)c(Cl)c1 (centres undefined)	277
O=C(NC1CCC(CN2CCC(c3c[nH]c4ccccc34)CC2)CC1)c1csc(-c2ccc(C(F)(F)F)cc2Cl)n1 (centres undefined)	827
COc1ccc(Nc2nccc(NCCNC(=O)Nc3ccccc3F)n2)cc1	1320
CCCCCCC(C)c1cc(O)c2c(c1)OC(C)(C)C=C2c1ccncc1 (centres undefined)	733
O=C1OC(c2ccccc2)(c2ccccc2)CN1C1CCN(Cc2ccc(O)c(Cl)c2)C1 (centres undefined)	955
CCOC(=O)c1c(C)n(-c2ccccc2)c2ccc(OC(=O)c3ccc(S(=O)(=O)N(CC)CC)cc3)cc12	748
O=C(Nc1cccc(C(F)(F)F)c1)Nc1ccc(F)c([N+](=O)[O-])c1	696
O=C(Cn1c(CCc2cccc(F)c2F)nc(=O)c2cccnc21)N(Cc1ccc(-c2ccc(C(F)(F)F)cc2)cc1)C1CCN(C2CCSCC2)CC1	230
CCOC(=O)c1ccc2[nH]c(-c3ccc(C(=O)NC4CCN(Cc5ccccc5)CC4)s3)nc2c1	745
O=C(Nc1ccc(N2CCNCC2)nc1)c1oc(-c2ccccc2)nc1C(F)(F)F	981
